The test system of the assay is MBT-2 tumors. The assay can be described thus: Anti-tumoral activity in MBT-2 syngeneic ectotopic (subcutaneous) tumor model. The class given is in vivo, mouse. The arrangement: key to Statistical significance for tumor growth versus Anti-PD-1: p value < 0.05*; ns: Ns: non significant. As for the experimental part: The aim of this study is to determine the anti-tumoral activity of ABX196 or of anti-PD-1 antibody, administered systemically alone, in MBT2 syngeneic ectotopic models and in particular, to evaluate the capacity of these agents to treat established sub-cutaneous tumors.
Anti-PD-1 antibody (ref.: BE0146, BioXcell; clone: RMP1-14, reactivity: mouse; isotype: Rat IgG2a; storage conditions: +4° C.). Anti-PD-1 antibody is prepared in phosphate buffered saline (PBS) or other suitable vehicle according to manufacturer's recommendation. The anti-PD-1 antibody is administered at the dose of 10 mg/kg. Anti-PD-1 antibody is injected into the peritoneal cavity of mice (Intraperitoneally, IP). Anti-PD-1 antibody is administered at a dose volume of 10 mL/kg/adm.
ABX196 is provided as a solution at […] and is administered at the dose of 100 ng per mouse. ABX196 is injected by the intravenous route in the caudal vein of mice (IV, bolus). ABX196 is administered at a fixed dose volume of 100 μL (i.e. approximately 5 mL/kg/adm. for one mouse weighing 20 g).
Tumor cells are grown as monolayer at 37° C. in a humidified atmosphere (5% CO2, 95% air). The culture medium is RPMI 1640 containing 2 mM L-glutamine (ref: BE12-702F, Lonza, Verviers, Belgium) supplemented with 10% fetal bovine serum (ref: 3302, Lonza). Tumor cells are adherent to plastic flasks. For experimental use, tumor cells are detached from the culture flask by a 5-minutes treatment with trypsin-versene (ref: BE02-007E, Lonza), in Hanks' medium without calcium or magnesium (ref: BE10-543F, Lonza) and neutralized by addition of complete culture medium.
68 (sixty-eight) healthy female C3H/HeJ (C3H/HeOuJ) mice, 6-7 weeks old, are obtained from The Jackson Laboratory (Bar Harbor, Me.) for the MBT-2 model.
MBT-2 tumors are induced by subcutaneous injection of 1×10^6 cells in 200 μL of RPMI 1640 into the right flank of the sixty-eight female animals.
The treatment starts when the tumors reach a mean volume of 80-120 mm^3 (day 13 in this experiment). The sixty-eight mice for the MBT-2 model are randomized according to their individual tumor volume into 4 groups each (one not shown) of 12 animals using Vivo Manager® software (Biosystemes, Couternon, France). A statistical test (analysis of variance, ANOVA) is performed to test for homogeneity between groups. The treatment schedule was chosen as follows:
Animals from group 1 receive an IV injection of ABX196 vehicle and an IP injection of anti-PD-1 antibody vehicle,
Animals from group 2 receive an IV injection of 100 ng of ABX196,
Animals from group 3 receive twice weekly administrations of anti-PD-1 antibody,
Tumor growth inhibition (T/C) is defined as the ratio of the median tumor volumes of treated versus control group. The optimal value is the minimal T/C ratio reflecting the maximal tumor growth inhibition achieved.

[1] abbreviates: day 20, one way ANOVA, pair wise Bonferroni's multiple comparison test.

`CCCCCCCCCCCCCCCCCCCCCCCC(=O)N[C@@H](CO[C@H]1O[C@H](CNC(C)=O)[C@H](O)[C@H](O)[C@H]1O)[C@H](O)[C@H](O)CCCCCCCCCCCCCC` [ABX196]: the “T/C (%) (tumor growth inhibition, ratio of median tumor volumes of treated versus control group)” value (C3H/HeJ mice with subcutaneous MBT-2 tumors, day 23 after tumor induction, ABX196 100 ng IV Q1Dx1, anti-PD-1 10 mg/kg IP TWx2) is 54%. Further, under setting [1], the “Statistical significance for tumor growth versus Anti-PD-1” value was “ns” and the “Statistical significance for tumor growth versus Vehicle” value is “* (p value < 0.05*)”. Also, the “Mean tumor volume in function of time after tumor induction (FIG. 1), compared with anti-PD-1 antibodies” value (subcutaneous MBT-2 tumors, ABX196 100 ng IV Q1Dx1) is reported as “reduces more efficiently the tumor volume than anti-PD-1 antibodies”. Also, the “Tumor growth inhibition (FIG. 2), compared with anti-PD-1 antibodies” value (subcutaneous MBT-2 tumors, day 23, ABX196 100 ng IV Q1Dx1) was “inhibits more efficiently the tumor growth than anti-PD-1 antibodies”.

These data come from patent US11266667B2, “ABX196 for use in the treatment of bladder cancer” (ABIVAX, priority 2017, dated 2022).
